Test results as given in patent US10052330B2, “Substituted pyrido[3,4-b]pyrazines as Syk inhibitors” (HUTCHISON MEDIPHARMA LIMITED, priority 2011, dated 2018).

target: Syk kinase (Homo sapiens, UniProt P43405); experiment: Syk kinase enzymatic assay (Kit-Tyr 2 Peptide); format: biochemical; conditions: 8 concentrations, 1 μM down to 0.0003 μM; upper bound of each range is 'less than'; read-out: IC50: Enzymatic Activity (Syk kinase)

`FC1(CNc2nc(-c3ccc(N4CCOCC4)nc3)cc3nccnc23)CCCNC1` (single isomer, unassigned) [Compound 378] and `FC1(F)CNCC(CNc2nc(-c3ccc(N4CCOCC4)nc3)cc3nccnc23)C1` (centres unmarked) [Compound 206] fall in the same range of IC50: 100 to 1000 nM for the first, 100 to 1000 nM for the second.

Compared with `CN1CCN(c2ccc(-c3cc4nccnc4c(NCC4(F)CCCNC4)n3)cc2)CC1` (single isomer, unassigned) [Compound 380], `FC1(CNc2nc(-c3ccc(N4CCOCC4)nc3)cc3nccnc23)CCCNC1` (centres unmarked) [Compound 252] is higher in IC50: 1 to 100 nM for the first, 100 to 1000 nM for the second.

`c1cnc2c(N3CC4CNCC4C3)nc(-c3ccc(N4CCOCC4)cc3)cc2n1` (centres unmarked) [Compound 6] and `c1cnc2c(N3CC4CCNC4C3)nc(-c3ccc(N4CCOCC4)cc3)cc2n1` (centres unmarked) [Compound 145, 4-(4-(5-(hexahydropyrrolo[3,4-b]pyrrol-5(1H)-yl)pyrido[4,3-b]pyrazin-7-yl)phenyl)morpholine] fall in the same range of IC50: 100 to 1000 nM for the first, 100 to 1000 nM for the second.

`NC1CCN(c2nc(-c3ccc(N4CCOCC4)cc3)cc3nccnc23)CC1` [Compound 7] and `O=C1CN(c2nc(-c3ccc(N4CCOCC4)cc3)cc3nccnc23)CCN1` [Compound 360] fall in the same range of IC50: 100 to 1000 nM for the first, 100 to 1000 nM for the second.

`c1cnc2c(N3CCC4CNCC43)nc(-c3ccc(N4CCOCC4)cc3)cc2n1` (centres unmarked) [Compound 8] and `c1cnc2c(NC3CCCNC3)nc(-c3ccc(N4CCOCC4)cc3)cc2n1` (centres unmarked) [Compound 27] fall in the same range of IC50: 100 to 1000 nM for the first, 100 to 1000 nM for the second.

`COc1cc(-c2cc3nccnc3c(NCC3CCCNC3)n2)cc(OC)c1OC` (centres unmarked) [Compound 11] and `Fc1ccc(-c2cc3nccnc3c(NCC3CCCNC3)n2)cc1Cl` (centres unmarked) [Compound 20] fall in the same range of IC50: 100 to 1000 nM for the first, 100 to 1000 nM for the second.

`c1cc(-c2cc3nccnc3c(NCC3CCCNC3)n2)cc(N2CCOCC2)c1` (centres unmarked) [Compound 14] and `O=C(c1ccc(-c2cc3nccnc3c(NCC3CCCNC3)n2)cc1)N1CCOCC1` (centres unmarked) [Compound 65] fall in the same range of IC50: 100 to 1000 nM for the first, 100 to 1000 nM for the second.

`c1cnc2c(NCC3CCCNC3)nc(-c3ccoc3)cc2n1` (centres unmarked) [Compound 31] and `Nc1ccc(-c2cc3nccnc3c(NCC3CCCNC3)n2)cn1` (centres unmarked) [Compound 57] fall in the same range of IC50: 100 to 1000 nM for the first, 100 to 1000 nM for the second.

Compared with `OCCn1cc(-c2cc3nccnc3c(NC[C@H]3CCCNC3)n2)cn1` [Compound 34], `COCCn1cc(-c2cc3nccnc3c(NCC3CCCNC3)n2)cn1` (centres unmarked) [Compound 72] is higher in IC50: 1 to 100 nM for the first, 100 to 1000 nM for the second.

Compared with `NS(=O)(=O)c1ccc(-c2cc3nccnc3c(NCC3CCCNC3)n2)cc1` (centres unmarked) [Compound 43], `CS(=O)(=O)Nc1ccc(-c2cc3nccnc3c(NCC3CCCNC3)n2)cc1` (centres unmarked) [Compound 53] is lower in IC50: 100 to 1000 nM for the first, 1 to 100 nM for the second.

Compared with `CNC(=O)COc1ccc(-c2cc3nccnc3c(NCC3CCCNC3)n2)cc1` (centres unmarked) [Compound 48], `CNC(=O)COc1cccc(-c2cc3nccnc3c(NCC3CCCNC3)n2)c1` (centres unmarked) [Compound 49] is higher in IC50: 1 to 100 nM for the first, 100 to 1000 nM for the second.

`CN(C)c1ccc(-c2cc3nccnc3c(NCC3CCCNC3)n2)cn1` (centres unmarked) [Compound 59] and `CN(C)Cc1ccc(-c2cc3nccnc3c(NCC3CCCNC3)n2)cc1` (centres unmarked) [Compound 64] fall in the same range of IC50: 1 to 100 nM for the first, 1 to 100 nM for the second.

Compared with `c1cnc2c(NCC3CCCNC3)nc(-c3ccc(N4CCNCC4)cc3)cc2n1` (centres unmarked) [Compound 61], `CCNC(=O)c1ccc(-c2cc3nccnc3c(NCC3CCCNC3)n2)cc1` (centres unmarked) [Compound 66] is higher in IC50: 1 to 100 nM for the first, 100 to 1000 nM for the second.

First: CN(C)CCOc1ccc(-c2cc3nccnc3c(NCC3CCCNC3)n2)cc1 (centres unmarked) [Compound 90]
Second: CC(C)(O)COc1ccc(-c2cc3nccnc3c(NC[C@@H]3CNCCO3)n2)cc1 [Compound 268]
The IC50 of the first is lower: 1 to 100 nM for the first, 100 to 1000 nM for the second. The first is the more potent here.

`c1cnc2c(NC[C@H]3CNCCO3)nc(-c3ccc(N4CCCC4)nc3)cc2n1` [Compound 101] and `OC1CCN(c2ccc(-c3cc4nccnc4c(NC[C@@H]4CNCCO4)n3)cn2)C1` (some centres unmarked) [Compound 257] fall in the same range of IC50: 100 to 1000 nM for the first, 100 to 1000 nM for the second.

`CCN(CC1CCCNC1)c1nc(-c2ccc(N3CCOCC3)cc2)cc2nccnc12` (centres unmarked) [Compound 154] and `CNc1nc(-c2ccc(N3CCOCC3)cc2)cc2nccnc12` [Compound 357] fall in the same range of IC50: 100 to 1000 nM for the first, 100 to 1000 nM for the second.

`COc1ccc(-c2cc3nccnc3c(NCCCN)n2)cc1OC` [Compound 191] and `COc1cc(-c2cc3nccnc3c(NCCCN)n2)ccc1OCCN1CCOCC1` [Compound 198] fall in the same range of IC50: 100 to 1000 nM for the first, 100 to 1000 nM for the second.

`CC(C)Nc1nc(-c2ccc(N3CCOCC3)cc2)cc2nccnc12` [Compound 195] and `CC(CO)Nc1nc(-c2ccc(N3CCOCC3)cc2)cc2nccnc12` (centres unmarked) [Compound 358] fall in the same range of IC50: 100 to 1000 nM for the first, 100 to 1000 nM for the second.

`Cc1cc(-c2cc3nccnc3c(NCC3CNCC(F)(F)C3)n2)ccc1N1CCOCC1` (centres unmarked) [Compound 201] and `Fc1cc(-c2cc3nccnc3c(NCC3CNCC(F)(F)C3)n2)ccc1N1CCOCC1` (centres unmarked) [Compound 202] fall in the same range of IC50: 100 to 1000 nM for the first, 100 to 1000 nM for the second.

`FC1(F)CNCC(CNc2nc(-c3ccc(N4CCOCC4)c(Cl)c3)cc3nccnc23)C1` (centres unmarked) [Compound 203] and `CNc1ccc(-c2cc3nccnc3c(NCC3CNCC(F)(F)C3)n2)cc1F` (centres unmarked) [Compound 207] fall in the same range of IC50: 100 to 1000 nM for the first, 100 to 1000 nM for the second.

`CNc1ccc(-c2cc3nccnc3c(NCC3CNCC(F)(F)C3)n2)cc1` (centres unmarked) [Compound 204] and `Fc1ccc(-c2cc3nccnc3c(NC[C@@H]3CNCCO3)n2)cc1` [Compound 245] fall in the same range of IC50: 100 to 1000 nM for the first, 100 to 1000 nM for the second.

`CCn1cc(-c2cc3nccnc3c(NC[C@@H]3CNCCO3)n2)cn1` [Compound 209] and `Cn1cc(-c2cc3nccnc3c(NC[C@@H]3CNCCO3)n2)cn1` [Compound 210] fall in the same range of IC50: 100 to 1000 nM for the first, 100 to 1000 nM for the second.

`CS(=O)(=O)c1ccc(-c2cc3nccnc3c(NC[C@@H]3CNCCO3)n2)cc1` [Compound 211] and `CNS(=O)(=O)c1ccc(-c2cc3nccnc3c(NC[C@@H]3CNCCO3)n2)cc1` [Compound 284] fall in the same range of IC50: 100 to 1000 nM for the first, 100 to 1000 nM for the second.

`CN(C)Cc1ccc(-c2cc3nccnc3c(NC[C@@H]3CNCCO3)n2)cc1` [Compound 212] and `CN(C)C(=O)Cc1ccc(-c2cc3nccnc3c(NC[C@@H]3CNCCO3)n2)cc1` [Compound 224] fall in the same range of IC50: 100 to 1000 nM for the first, 100 to 1000 nM for the second.

`CN(C)S(=O)(=O)c1ccc(-c2cc3nccnc3c(NCC3CNCCO3)n2)cc1` (centres unmarked) [Compound 227] and `O=S(=O)(c1ccc(-c2cc3nccnc3c(NC[C@@H]3CNCCO3)n2)cc1)N1CCOCC1` [Compound 283] fall in the same range of IC50: 100 to 1000 nM for the first, 100 to 1000 nM for the second.

`O=C1COCCN1c1ccc(-c2cc3nccnc3c(NC[C@@H]3CNCCO3)n2)cc1` [Compound 242] and `c1cn(-c2ccc(-c3cc4nccnc4c(NC[C@@H]4CNCCO4)n3)cc2)cn1` [Compound 248] fall in the same range of IC50: 100 to 1000 nM for the first, 100 to 1000 nM for the second.

`c1cnc2c(NC[C@@H]3CNCCO3)nc(-c3ccc4c(c3)OCCO4)cc2n1` [Compound 244] and `c1cnc2c(NC[C@@H]3CNCCO3)nc(-c3ccc(OC4CCOCC4)nc3)cc2n1` [Compound 271] fall in the same range of IC50: 100 to 1000 nM for the first, 100 to 1000 nM for the second.

`C[C@@H]1CN(c2ccc(-c3cc4nccnc4c(NC[C@@H]4CNCCO4)n3)cn2)C[C@H](C)O1` [Compound 246] and `CN1CC2CN(c3ccc(-c4cc5nccnc5c(NC[C@@H]5CNCCO5)n4)cn3)CC2C1` (some centres unmarked) [Compound 256] fall in the same range of IC50: 100 to 1000 nM for the first, 100 to 1000 nM for the second.

`Cn1cc(-c2ccc(-c3cc4nccnc4c(NC[C@@H]4CNCCO4)n3)cc2)cn1` [Compound 249] and `CN1CCC(n2cc(-c3cc4nccnc4c(NC[C@@H]4CNCCO4)n3)cn2)CC1` [Compound 262] fall in the same range of IC50: 100 to 1000 nM for the first, 100 to 1000 nM for the second.

`c1cnc2c(NC[C@@H]3CNCCO3)nc(-c3ccc(OCC4CCOCC4)nc3)cc2n1` [Compound 258] and `c1cnc2c(NC[C@@H]3CNCCO3)nc(-c3ccc(OCCN4CCOCC4)nc3)cc2n1` [Compound 263] fall in the same range of IC50: 100 to 1000 nM for the first, 100 to 1000 nM for the second.

`CC(Nc1nc(-c2ccc(N3CCOCC3)nc2)cc2nccnc12)C1CNCCO1` (centres unmarked) [Compound 277] and `CC(C)C(=O)N1CCO[C@H](CNc2nc(-c3ccc(N4CCOCC4)cc3)cc3nccnc23)C1` [Compound 328] fall in the same range of IC50: 100 to 1000 nM for the first, 100 to 1000 nM for the second.

`COCCn1cc(-c2cc3nccnc3c(NCC3(F)CCCNC3)n2)cn1` (centres unmarked) [Compound 288] and `COc1ccc(-c2cc3nccnc3c(NCC3CNCCC3(F)F)n2)cn1` (centres unmarked) [Compound 299] fall in the same range of IC50: 100 to 1000 nM for the first, 100 to 1000 nM for the second.

`O=C(C(F)F)N1CCC(F)(F)C(CNc2nc(-c3cnn(C4CCOCC4)c3)cc3nccnc23)C1` (centres unmarked) [Compound 325] and `NC(=O)N1CCC(F)(F)C(CNc2nc(-c3cnn(C4CCOCC4)c3)cc3nccnc23)C1` (centres unmarked) [Compound 355] fall in the same range of IC50: 100 to 1000 nM for the first, 100 to 1000 nM for the second.

`CC(=O)N1CCO[C@H](CNc2nc(-c3ccc(N4CCOCC4)cc3)cc3nccnc23)C1` [Compound 326] and `CCC(=O)N1CCO[C@H](CNc2nc(-c3ccc(N4CCOCC4)cc3)cc3nccnc23)C1` [Compound 327] fall in the same range of IC50: 100 to 1000 nM for the first, 100 to 1000 nM for the second.

`O=C(CO)N1CCO[C@H](CNc2nc(-c3ccc(N4CCOCC4)cc3)cc3nccnc23)C1` [Compound 337] and `CNC(=O)N1CCO[C@H](CNc2nc(-c3ccc(N4CCOCC4)cc3)cc3nccnc23)C1` [Compound 339] fall in the same range of IC50: 100 to 1000 nM for the first, 100 to 1000 nM for the second.

`CC(C)(F)C(=O)N1CCO[C@H](CNc2nc(-c3ccc(N4CCOCC4)cc3)cc3nccnc23)C1` [Compound 341] and `CC(F)(F)C(=O)N1CCO[C@H](CNc2nc(-c3ccc(N4CCOCC4)cc3)cc3nccnc23)C1` [Compound 342] fall in the same range of IC50: 100 to 1000 nM for the first, 100 to 1000 nM for the second.

`O=C(CC(F)(F)F)N1CCO[C@H](CNc2nc(-c3ccc(N4CCOCC4)cc3)cc3nccnc23)C1` [Compound 343] and `O=S(=O)(C1CC1)N1CCO[C@H](CNc2nc(-c3ccc(N4CCOCC4)cc3)cc3nccnc23)C1` [Compound 344] fall in the same range of IC50: 100 to 1000 nM for the first, 100 to 1000 nM for the second.

`NC(=O)N1CCO[C@H](CNc2nc(-c3ccc(N4CCOCC4)c(F)c3)cc3nccnc23)C1` [Compound 348] and `NC(=O)N1CCC(F)(F)C(CNc2nc(-c3ccc(N4CCOCC4)cc3)cc3nccnc23)C1` (centres unmarked) [Compound 356] fall in the same range of IC50: 100 to 1000 nM for the first, 100 to 1000 nM for the second.

`NC(=O)N1CCC(CNc2nc(-c3ccc(N4CCOCC4)cc3)cc3nccnc23)CC1` [Compound 350] and `NC(=O)N1CCCCC1CNc1nc(-c2ccc(N3CCOCC3)cc2)cc2nccnc12` (centres unmarked) [Compound 354] fall in the same range of IC50: 100 to 1000 nM for the first, 100 to 1000 nM for the second.

`O=C(O)c1ccccc1Nc1nc(-c2ccc(N3CCOCC3)cc2)cc2nccnc12` [Compound 361] and `NC(=O)[C@H]1CC[C@@H](Nc2nc(-c3ccc(N4CCOCC4)cc3)cc3nccnc23)CC1` [Compound 363] fall in the same range of IC50: 100 to 1000 nM for the first, 100 to 1000 nM for the second.
